In US11279733B2, “Peptide antibiotics” (priority 2017, dated 2022):
Where two headings read alike, the source gives them in different places.

Assays:
[1] = system: A. baumannii ATCC 19606
Outline: (§1)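 Mid-log cultures grown in Mueller Hinton broth at 37° C were tested by 2-fold broth microdilution at 5×10^5 CFU/mL final. Compounds were dissolved in water and tested over a final range of 32 to 0.015 μg/mL.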

[2] = system: A. baumannii GN_093 PmxR
Outline: as §1

[3] = system: E. coli ATCC 25922
Outline: as §1

[4] = system: K. pneumoniae ATCC 13883
Outline: as §1

[5] = system: K. pneumoniae ATCC 700603, MDR
Outline: as §1

[6] = system: K. pneumoniae ATCC BAA-2146, NDM-1 pos
Outline: as §1

[7] = system: K. pneumoniae GN_102 PmxR
Outline: as §1

[8] = system: K. pneumoniae GN_106, PmxR
Outline: as §1

[9] = system: P. aeruginosa ATCC 27853
Outline: as §1

[10] = system: P. aeruginosa GN_043, PmxR
Outline: as §1

[11] = system: P. aeruginosa GN_105, PmxR
Outline: as §1

[12] = system: S. aureus ATCC 25923, MSSA
Outline: as §1

[13] = system: Human kidney 2 (HK2) cells; assay: Cytotoxicity, HK2 LDH assay
Outline: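 HK2 cells were seeded at 2000 per well in DMEM/F12 with 10% FBS and left to attach for 24 h at 37 °C, 5% CO2. They were then exposed for 24 h to 3-fold peptide dilutions starting from 600 μM solutions in quadruplicate. LDH release was read at 450 nm, and CC50 was fitted from dose-response curves.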

Substance: polymyxin B sulfate [PolymyxinB, reference compound]
- MIC A. baumannii ATCC 19606 [1]: 0.25 µg/mL
- MIC A. baumannii ATCC 19606 ([1]; A. baumannii ATCC 19606): 0.25 µg/mL
- MIC, A. baumannii ATCC 19606 ([1]; Table 5): 0.25 µg/mL
- MIC, A. baumannii ATCC 19606 ([1]; Table 6): 0.25 µg/mL
- MIC A. baumannii GN_093 PmxR [2]: 64 µg/mL
- MIC A. baumannii GN_093 PmxR ([2]; A. baumannii GN_093 PmxR): 64 µg/mL
- MIC, A. baumannii Cl Ptyela 10073 4512:2, PmxR ([2]; Table 5, polymyxin-resistant): 64 µg/mL
- MIC A. baumannii GN_093 PmxR ([2]; Table 6, polymyxin-resistant): 64 µg/mL
- MIC A. baumannii GN_093 PmxR ([2]; polymyxin-resistant): 64 µg/mL
- MIC A. baumannii Cl Ptyela 10073 4512:2, PmxR ([2]; strain name as in Table 11): 64 µg/mL
- MIC E. coli ATCC 25922 [3]: 0.25 µg/mL
- MIC E. coli ATCC 25922 ([3]; E. coli ATCC 25922): 0.25 µg/mL
- MIC, E. coli ATCC 25922 ([3]; Table 5): 0.25 µg/mL
- MIC, E. coli ATCC 25922 ([3]; Table 6): 0.25 µg/mL
- MIC K. pneumoniae ATCC 13883 [4]: 1 µg/mL
- MIC K. pneumoniae ATCC 13883 ([4]; K. pneumoniae ATCC 13883): 1 µg/mL
- MIC, K. pneumoniae ATCC 13883 ([4]; Table 5): 1 µg/mL
- MIC, K. pneumoniae ATCC 13883 ([4]; Table 6): 1 µg/mL
- MIC K. pneumoniae ATCC 700603, MDR [5]: 0.5 µg/mL
- MIC K. pneumoniae ATCC 700603, MDR ([5]; K. pneumoniae ATCC 700603, MDR): 0.5 µg/mL
- MIC, K. pneumoniae ATCC 700603, MDR ([5]; Table 5): 0.5 µg/mL
- MIC, K. pneumoniae ATCC 700603, MDR ([5]; Table 6): 0.5 µg/mL
- MIC K. pneumoniae ATCC BAA-2146, NDM-1 pos [6]: 0.25 µg/mL
- MIC K. pneumoniae ATCC BAA-2146, NDM-1 pos ([6]; K. pneumoniae ATCC BAA-2146, NDM-1 pos): 0.25 µg/mL
- MIC, K. pneumoniae ATCC BAA-2146, NDM-1 pos ([6]; Table 5): 0.25 µg/mL
- MIC, K. pneumoniae ATCC BAA-2146, NDM-1 pos ([6]; Table 6): 0.25 µg/mL
- MIC K. pneumoniae GN_102 PmxR [7]: 64 µg/mL
- MIC K. pneumoniae GN_102 PmxR ([7]; K. pneumoniae GN_102 PmxR): 64 µg/mL
- MIC, K. pneumoniae Cl Koprana 10065 0661:1, PmxR ([7]; Table 5, polymyxin-resistant): 64 µg/mL
- MIC K. pneumoniae GN_102 PmxR ([7]; Table 6, polymyxin-resistant): 64 µg/mL
- MIC K. pneumoniae GN_102 PmxR ([7]; polymyxin-resistant): 64 µg/mL
- MIC K. pneumoniae Cl Koprana 10065 0661:1 PmxR ([7]; strain name as in Table 11): 64 µg/mL
- MIC K. pneumoniae GN_106, PmxR [8]: 64 µg/mL
- MIC K. pneumoniae GN_106, PmxR ([8]; K. pneumoniae GN_106, PmxR): 64 µg/mL
- MIC, K. pneumoniae Cl 138-16347-20362, PmxR ([8]; Table 5, polymyxin-resistant): 64 µg/mL
- MIC K. pneumoniae GN_106, PmxR ([8]; Table 6, polymyxin-resistant): 64 µg/mL
- MIC K. pneumoniae GN_106, PmxR ([8]; polymyxin-resistant): 64 µg/mL
- MIC K. pneumoniae Cl 183-16357-20352, PmxR ([8]; strain name as in Table 11): 64 µg/mL
- MIC P. aeruginosa ATCC 27853 [9]: 0.5 µg/mL
- MIC P. aeruginosa ATCC 27853 ([9]; P. aeruginosa ATCC 27853): 0.5 µg/mL
- MIC, P. aeruginosa ATCC 27853 ([9]; Table 5): 0.5 µg/mL
- MIC, P. aeruginosa ATCC 27853 ([9]; Table 6): 0.5 µg/mL
- MIC P. aeruginosa GN_043, PmxR [10]: 64 µg/mL
- MIC P. aeruginosa GN_043, PmxR ([10]; P. aeruginosa GN_043, PmxR): 64 µg/mL
- MIC, P. aeruginosa FADDI-PA070, PmxR ([10]; Table 5, polymyxin-resistant): 64 µg/mL
- MIC P. aeruginosa GN_043, PmxR ([10]; Table 6, polymyxin-resistant): 64 µg/mL
- MIC P. aeruginosa GN_043, PmxR ([10]; polymyxin-resistant): 64 µg/mL
- MIC, P. aeruginosa FADDI-PA070, PmxR ([10]; strain name as in Table 11): 64 µg/mL
- MIC P. aeruginosa GN_105, PmxR [11]: >128 µg/mL
- MIC P. aeruginosa GN_105, PmxR ([11]; P. aeruginosa GN_105, PmxR): >128 µg/mL
- MIC, P. aeruginosa PA9704, PmxR ([11]; Table 5, polymyxin-resistant): >128 µg/mL
- MIC P. aeruginosa GN_105, PmxR ([11]; Table 6, polymyxin-resistant): >128 µg/mL
- MIC P. aeruginosa GN_105, PmxR ([11]; polymyxin-resistant): >128 µg/mL
- MIC P. aeruginosa PA9704, PmxR ([11]; strain name as in Table 11): >128 µg/mL
- MIC S. aureus ATCC 25923, MSSA [12]: >64 µg/mL
- MIC S. aureus ATCC 25923, MSSA ([12]; S. aureus ATCC 25923, MSSA): >64 µg/mL
- MIC, S. Aureus ATCC 25923, MSSA ([12]; Table 5): >64 µg/mL
- MIC, S. aureus ATCC 25923, MSSA ([12]; Table 6): >64 µg/mL
- CC50 ([13]; read-out: HK2 (LDH) CC50, HK2 cells, LDH): 125 µM
- CC50 ([13]; read-out: HK2 (LDH)-CC50, HK2, LDH, 24 h): 125 µM
- CC50 ([13]; read-out: HK2 (LDH)-CC50, HK2 cells, LDH): 125 µM
- CC50 ([13]; read-out: HK2 (LDH)-CC50, Table 5, HK2 cells, LDH): 125 µM
- CC50 ([13]; read-out: HK2 (LDH)-CC50, Table 6, HK2 cells, LDH): 125 µM
